Assay results as given in US20260207654A1, “HEPARAN SULFATE AND ITS MIMETICS AS CHEMOKINE INHIBITORS” (INDIAN INSTITUTE OF SCIENCE EDUCATION AND RESEARCH, priority 2021, published 2026).

What was measured:
Experiment in all cases: Chemokine glycan microarray binding assay
Details in all cases: maximum RFU set as 100% binding, average across 2 glycan concentrations and 3 chemokine dilutions (n=6)
CCL28 = target: T1, CCL28 (Homo sapiens, UniProt Q9NRJ3)
T1 sequence (Q9NRJ3 20-127): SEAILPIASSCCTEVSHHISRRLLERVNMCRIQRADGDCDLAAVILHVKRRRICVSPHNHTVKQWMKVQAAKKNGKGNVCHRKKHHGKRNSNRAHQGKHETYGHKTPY
Experimental: (§1) Microarray Studies: The compounds of the present invention were covalently immobilized on epoxy group collated glass slides. Slides were rehydrated with dH2O and incubated for 30 min in a staining dish with 50° C. prewarmed ethanolamine (0.05 M) in Tris-HCl (0.1 M, pH 9.0) to block the remaining reactive epoxy groups on the slide surface, then washed with 50° C. prewarmed dH2O. Slides were centrifuged at 200 g for 3 min, then fitted with the ProPlate Multi-Array 16-well slide module (Grace Bio-lab P37001) to divide into the subarrays (blocks). Slides were washed with PBST (0.1% Tween 20), aspirated, and blocked with 200 μL/subarray of blocking buffer (PBS pH 7.3+1% w/v ovalbumin) for 1 h at RT with gentle shaking. Next, the blocking solution was aspirated and 100 μL/block of primary chemokines diluted in PBS pH 7.3+1% w/v ovalbumin were incubated with gentle shaking for 2 hours at RT. Slides were washed 4 times with PBST, then with PBS (without Tween-20) for 2 min. Bound antibodies were detected by incubating with biotinylated secondary detections (1 ng/μL) diluted in PBS, 200 μL/block at RT for 1 h. Slides were washed 4 times with PBST, then with PBS (without Tween-20) for 2 min and biotinylated antibodies were detected with Cy3-SA ([…]). Slides were washed 4 times with PBST, then with PBS for 10 min followed by removal from the ProPlate Multi-Array slide module and immediately dipping in a staining dish with dH2O for 10 min with shaking. The slides were then centrifuged at 200 g for 3 min, and the dry slides immediately scanned. Binding was tested at three serial dilutions, then detected with the relevant biotinylated secondary antibody (1 μg/mL) followed by Cy3-strepavidin (1.5 μg/mL). Arrays were scanned and RFUs were calculated of chemokines binding to 100 μM glycans printed at four replicates. Rank binding of chemokines (each at three dilutions) to glycans printed at four replicates each was calculated and summarized in Table 1. For each binding assay per printed block, the maximum RFU was determined and set as 100% binding. Then, binding to all other glycans in the same block was ranked in comparison to the maximal binding, and average rank binding (and SEM) for each glycan across the three examined concentrations of each chemokine was calculated. This analysis allowed to compare the glycan-binding profiles of the different chemokines and dissect their binding preferences.
(§2) Table 1. Chemokine glycan microarray binding assay. Binding was tested at 3 serial dilutions, then detected with the relevant biotinylated secondary antibody (1 μg/ml) followed by Cy3-Strepavidin (1.5 μg/ml) (Table SX). Arrays were scanned, relative fluorescent units (RFU) obtained, and maximum RFU determined and set as 100% binding. Then rank binding (per printed glycan per concentration, per each chemokine dilution, per printed block) was determined. Since each glycans was printed at 2 concentration, 100% binding was set separately for each concentration. Then, binding to all the other glycans at the same concentration was ranked in comparison to the maximal binding, and the average rank binding and SEM for each glycan across the two glycan concentrations and three examined dilutions of each chemokine was calculated (n=6, 2 glycan concentrations across 3 chemokine dilutions). This analysis allowed to compare the glycan binding profiles of the different chemokines and dissect their binding preferences. The mean rank is shown as a heatmap of all the examined binding assays together (red highest, blue lowest and white 50th percentile of ranking).

CCL13 = CCL13 (Homo sapiens, UniProt Q99616)
Experimental: as §1, §2

CCL5 = target: T2, CCL5 (Homo sapiens, UniProt P13501)
T2 sequence (P13501 24-91): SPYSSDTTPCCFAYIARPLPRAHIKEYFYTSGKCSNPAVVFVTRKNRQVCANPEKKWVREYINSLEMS
Experimental: as §1, §2

CCL21 = target: T3, CCL21 (Homo sapiens, UniProt O00585)
T3 sequence (O00585 24-134): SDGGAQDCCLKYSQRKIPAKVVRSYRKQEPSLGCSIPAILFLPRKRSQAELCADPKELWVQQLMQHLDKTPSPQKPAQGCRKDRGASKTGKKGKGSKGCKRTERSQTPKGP
Experimental: as §1, §2

CCL2 = CCL2 (Homo sapiens, UniProt P13500)
Experimental: as §1, §2

CXCL8 = target: T4, CXCL8 (Homo sapiens, UniProt P10145)
T4 sequence (P10145 21-99): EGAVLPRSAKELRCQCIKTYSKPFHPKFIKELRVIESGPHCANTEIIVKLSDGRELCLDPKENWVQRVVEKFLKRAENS
Experimental: as §1, §2

CCL7 = CCL7 (Homo sapiens, UniProt P80098)
Experimental: as §1, §2

CXCL12 = CXCL12 (Homo sapiens, UniProt P48061)
Experimental: as §1, §2

CXCL10 = target: T5, CXCL10 (Homo sapiens, UniProt P02778)
T5 sequence (P02778 22-98): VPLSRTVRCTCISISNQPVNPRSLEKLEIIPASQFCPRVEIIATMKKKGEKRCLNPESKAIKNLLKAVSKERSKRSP
Experimental: as §1, §2

Chain of CCL2 (P13500 24-99, species assumed): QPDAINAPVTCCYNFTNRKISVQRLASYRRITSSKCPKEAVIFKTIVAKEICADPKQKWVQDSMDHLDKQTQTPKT
Chain of CCL7 (P80098 24-99, species assumed): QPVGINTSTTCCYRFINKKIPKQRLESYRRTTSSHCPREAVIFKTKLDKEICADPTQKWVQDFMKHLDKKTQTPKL
Chain of CXCL12 (P48061 22-93, species assumed): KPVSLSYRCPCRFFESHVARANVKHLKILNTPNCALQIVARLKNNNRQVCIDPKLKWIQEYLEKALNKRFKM
Chain of CCL13 (Q99616 17-98, species assumed): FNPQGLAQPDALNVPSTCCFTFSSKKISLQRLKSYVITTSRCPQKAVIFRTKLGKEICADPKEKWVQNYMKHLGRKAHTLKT

Structure (SMILES)	mean rank binding to CCL28 (CCL28)	mean rank binding to CCL13 (CCL13)	mean rank binding to CCL5 (CCL5)	mean rank binding to CCL21 (CCL21)	mean rank binding to CCL2 (CCL2)	mean rank binding to CXCL8 (CXCL8)	mean rank binding to CCL7 (CCL7)	mean rank binding to CXCL12 (CXCL12)	mean rank binding to CXCL10 (CXCL10)
NCCOCCO[C@@H]1O[C@@H](C(=O)O)[C@@H](O[C@@H]2O[C@@H](C(=O)O)[C@@H](O[C@@H]3O[C@@H](C(=O)O)[C@@H](OS(=O)(=O)O)[C@H](O)[C@H]3OS(=O)(=O)O)[C@H](O)[C@H]2OS(=O)(=O)O)[C@H](O)[C@H]1OS(=O)(=O)O [Example 9, Ethoxy-2-aminoethoxyl-O-(2,4-O-disulfonato)-α-L-idopyranosyl Uronic Acid-α(1→4)(2-O-sulfonato)-α-L-idopyranosyl uronic acid-α(1→4)(2-O-sulfonato)-α-L-idopyranoside Uronic Acid]	51%	53%	75%	79%	66%	71%	94%	75%	82%
NCCOCCO[C@@H]1O[C@@H](C(=O)O)[C@@H](OS(=O)(=O)O)[C@H](O)[C@H]1O [Example 2, Ethoxy-2-aminoethoxyl-O-(4-O-sulfonato)-α-L-idopyranoside Uronic Acid]	58%	82%	2%	63%	2%	12%	30%	66%	45%
NCCOCCO[C@@H]1OC(C(=O)O)[C@@H](O[C@@H]2OC(C(=O)O)[C@@H](O)C(O)C2O)C(O)C1O (stereo partly drawn) [Example 4, Ethoxy-2-aminoethoxyl-O-(α-L-idopyranosyl Uronic Acid-α(1→4))-α-L-idopyranosyl Uronic Acid]	56%	67%	2%	48%	2%	12%	33%	56%	44%
NCCOCCO[C@@H]1O[C@@H](C(=O)O)[C@@H](O[C@@H]2O[C@@H](C(=O)O)[C@@H](OS(=O)(=O)O)[C@H](O)[C@H]2OS(=O)(=O)O)[C@H](O)[C@H]1OS(=O)(=O)O [Example 6, Ethoxy-2-aminoethoxyl-O-((2,4-O-disulfonato)-α-L-idopyranosyl Uronic Acid-α(1→4)(2-sulfonato))-α-L-idopyroside Uronic Acid]	84%	94%	38%	71%	25%	73%	55%	79%	67%
NCCOCCO[C@@H]1O[C@@H](C(=O)O)[C@@H](O[C@@H]2O[C@@H](C(=O)O)[C@@H](OS(=O)(=O)O)[C@H](O)[C@H]2O)[C@H](O)[C@H]1O [Example 5, Ethoxy-2-aminoethoxyl-O-((4-O-sulfonato)-α-L-idopyranosyl Uronic Acid-α(1→4))-α-L-idopyranoside Uronic Acid]	80%	81%	15%	62%	23%	62%	58%	64%	57%
NCCOCCO[C@@H]1O[C@@H](C(=O)O)[C@@H](OS(=O)(=O)O)[C@H](O)[C@H]1OS(=O)(=O)O [Example 3, Ethoxy-2-aminoethoxyl-O-(2,4-O-disulfonato)-α-L-idopyranoside Uronic Acid]	72%	69%	1%	46%	0%	5%	17%	38%	24%

Next, values leading:

mean rank binding to CCL28 (CCL28)	mean rank binding to CCL13 (CCL13)	mean rank binding to CCL5 (CCL5)	mean rank binding to CCL21 (CCL21)	mean rank binding to CCL2 (CCL2)	mean rank binding to CXCL8 (CXCL8)	mean rank binding to CCL7 (CCL7)	mean rank binding to CXCL12 (CXCL12)	mean rank binding to CXCL10 (CXCL10)	Structure (SMILES)
79%	81%	24%	79%	13%	19%	73%	66%	41%	CC(=O)NC1C(O)[C@H](O)C(COS(=O)(=O)O)O[C@@H]1O[C@@H]1C(C(=O)O)O[C@@H](O[C@@H]2C(COS(=O)(=O)O)O[C@H](O[C@@H]3C(C(=O)O)O[C@@H](OCCCN)C(O)C3O)C(NC(C)=O)C2O)C(O)C1O (stereo partly drawn) [Example 24, 3-Aminopropyl-O-[(2-acetamido-6-O-sulfonato-2-deoxy-α-D-glucopyranosyl)-(1→4)-O-(α-L-idopyranosyluronate)-(1→4)-O-(2-acetamido-6-O-sulfonato-2-deoxy-α-D-glucopyranosyl)]-(1→4)-O-α-L-idopyranosiduronate]
76%	88%	86%	86%	69%	83%	87%	98%	96%	NCCOCCO[C@@H]1OC(C(=O)O)[C@@H](O[C@@H]2OC(C(=O)O)[C@@H](O[C@@H]3OC(C(=O)O)[C@@H](O[C@@H]4OC(C(=O)O)[C@@H](O)C(O)C4O)C(O)C3O)C(O)C2O)C(O)C1O (stereo partly drawn) [Example 10, Ethoxy-2-aminoethoxyl-O-(α-L-idopyranosyl Uronic Acid-α(1→4)-α-L-idopyranosyluronic acid-α(1→4)-α-L-idopyranosyluronic acid-α(1→4))-α-L-idopyranoside Uronic Acid]
22%	24%	1%	27%	0%	3%	2%	16%	14%	CC(=O)NC1C(O)[C@H](O)C(CO)O[C@@H]1O[C@@H]1C(C(=O)O)O[C@@H](O[C@@H]2C(CO)O[C@H](O[C@@H]3C(C(=O)O)O[C@@H](OCCCN)C(O)C3O)C(NC(C)=O)C2O)C(O)C1O (stereo partly drawn) [Example 16, 3-Aminopropyl-O-[(2-acetamido-2-deoxy-α-D-glucopyranosyl)-(1→4)-O-(α-L-idopyranosyluronate)-(1→4)-O-(2-acetamido-2-deoxy-α-D-glucopyranosyl)]-(1→4)-O-α-L-idopyranosiduronate]
